Residues, ends and D or L forms follow the SMILES beside them.
Experiments:
[1] = target: T1, NCP (nucleosome core particle) (Homo sapiens, UniProt P04908+P06899+P62805+P68431); experiment: biochemical; type: binding
T1 construct: made in house; host or cells: E. coli BL21(DE3)-RIL

[2] = target: T1, NCP (nucleosome core particle); experiment: ITC measurement of full-length IE1, IE1-CTD and IE1ΔCTD binding to NCP at 150 mM NaCl
[3] = target: T2, human NCP carrying the E56R mutation of histone H2A (Homo sapiens, UniProt P04908+P06899+P62805+P68431, E57R); experiment: ITC measurement of peptide binding to NCP reconstituted with H2A E56R mutant; conditions: 20°C, 10 mM Tris-HCl pH 7.5, 50 mM NaCl, Figure 3
T2 construct: made in house; host or cells: E. coli BL21(DE3)-RIL

30-nm chromatin fiber = experiment: AUC sedimentation velocity of 30-nm chromatin fiber (with H1); type: biochemical, human; conditions: 12 x 177 bp 601 array with H1, […], peptide/protein to NCP 5:1 molar ratio, 10 mM HEPES pH 8.0, 0.1 mM EDTA, listed as LANA-CTD
Protocol: (§1) Recombinant human core histones were prepared as described above. Linker histone H1.4 and DNA templates of 12 tandem 177 bp repeats of the 601 sequence were cloned and purified, and reconstituted into chromatin as previously described ([Chen et al., 2013]; [Dyer et al., 2003]; [Li et al., 2010]; [Song et al., 2014]).
(§2) The reconstituted chromatin samples were subject to AUC analysis in a buffer containing 10 mM HEPES, pH 8.0 and 0.1 mM EDTA.

10-nm nucleosomal array = experiment: AUC sedimentation velocity of 10-nm nucleosomal array (without H1); type: biochemical, human; conditions: 12 x 177 bp 601 array without H1, […], peptide to NCP 5:1 molar ratio, 10 mM HEPES pH 8.0, 0.1 mM EDTA, array alone Save 36 ± 1 S, listed as LANA-CTD
Protocol: as §1, §2

nucleosomal arrays = conditions: folding of nucleosomal arrays induced by magnesium ions; ref Chodaparambil et al., 2007; cited from earlier work
From the text: For the purpose of dissecting the functions of individual NCP binding partners, one would ideally like to be able to isolate histone mutants that affect the binding of one protein but not others. The most promising such sites appear to lie in zone II and III, as they are less frequently occupied among known NCP binding proteins (Figure 2). […] Nevertheless, the identification of the E56R variant of histone H2A as an IE1-noninteracting mutant has already se ...

Compound: CSCC[C@H](NC(=O)[C@@H]1CCCN1C(=O)[C@H](C)NC(=O)[C@@H](NC(=O)[C@H](CO)NC(=O)[C@H](CCCCN)NC(=O)CNC(=O)CN)[C@@H](C)O)C(=O)N[C@H](C(=O)N[C@H](C(=O)N[C@@H](CCCNC(=N)N)C(=O)N[C@@H](CO)C(=O)N[C@@H](CCCCN)C(=O)N[C@@H](C)C(=O)N[C@@H](CC(=O)O)C(=O)N[C@@H](CCC(N)=O)C(=O)O)[C@@H](C)O)C(C)C [H481A] (H-GGKSTAPMVTRSKADQ-OH)
- Kd [1]: 43.4 ± 5.36 µM

Compound: CSCC[C@H](NC(=O)[C@@H]1CCCN1C(=O)[C@H](Cc1c[nH]cn1)NC(=O)[C@@H](NC(=O)[C@H](CO)NC(=O)[C@H](CCCCN)NC(=O)CNC(=O)CN)[C@@H](C)O)C(=O)N[C@H](C(=O)N[C@H](C(=O)N[C@@H](CCCNC(=N)N)C(=O)N[C@@H](CO)C(=O)N[C@@H](CCCCN)C(=O)N[C@@H](C)C(=O)N[C@@H](CC(=O)O)C(=O)N[C@@H](CCC(N)=O)C(=O)O)[C@@H](C)O)C(C)C [IE1-CTD]
- Kd [1]: 0.42 ± 0.04 µM
- Kd [2]: 2.25 ± 0.1 µM

Compound: CSCC[C@H](NC(=O)[C@@H]1CCCN1C(=O)[C@H](Cc1c[nH]cn1)NC(=O)[C@@H](NC(=O)[C@H](CO)NC(=O)[C@H](CCCCN)NC(=O)CNC(=O)CN)[C@@H](C)O)C(=O)N[C@H](C(=O)N[C@H](C(=O)N[C@@H](CCCNC(=N)N)C(=O)N[C@@H](CO)C(=O)N[C@@H](CCCCN)C(=O)N[C@@H](C)C(=O)N[C@@H](CC(=O)O)C(=O)N[C@@H](CCC(N)=O)C(=O)O)C(C)C)C(C)C [T485V] (H-GGKSTHPMVVRSKADQ-OH)
- Kd [1]: 11.3 ± 0.73 µM

Compound: CSCC[C@H](NC(=O)[C@@H]1CCCN1C(=O)[C@@H](N)Cc1c[nH]cn1)C(=O)N[C@H](C(=O)N[C@H](C(=O)N[C@@H](CCCNC(=N)N)C(=O)N[C@@H](CO)C(=O)N[C@@H](CCCCN)C(=O)N[C@@H](C)C(=O)N[C@@H](CC(=O)O)C(=O)N[C@@H](CCC(N)=O)C(=O)O)[C@@H](C)O)C(C)C [Δ476–480] (H-HPMVTRSKADQ-OH)
- Kd [1]: 12.1 ± 0.45 µM

Compound: CSCC[C@H](NC(=O)CNC(=O)[C@@H]1CCCN1)C(=O)N[C@@H](CCCNC(=N)N)C(=O)N[C@@H](CC(C)C)C(=O)N[C@@H](CCCNC(=N)N)C(=O)N[C@@H](CO)C(=O)NCC(=O)N[C@@H](CCCNC(=N)N)C(=O)N[C@@H](CO)C(=O)N[C@H](C(=O)NCC(=O)N[C@@H](C)C(=O)N1CCC[C@H]1C(=O)O)[C@@H](C)O [LANA] (H-PGMRLRSGRSTGAP-OH; N-terminus and C-terminus assumed)
- N (ITC) ([1]; ITC, 20°C, 10 mM Tris-HCl pH 7.5, 50 mM NaCl, human NCP, Figure 3): 1.97
- N (ITC), H2A E56R NCP [3]: 2.03
- effect on folding of 30-nm chromatin fiber (in words) (30-nm chromatin fiber): does not affect the folding of the 30-nm chromatin fiber
- effect on 10-nm nucleosomal array (in words) (10-nm nucleosomal array): slightly affected
- compaction of nucleosomal arrays (in words) (nucleosomal arrays): promotes the compaction of nucleosomal arrays

From paper PMC4764553, “Human cytomegalovirus IE1 protein alters the higher-order chromatin structure by targeting the acidic patch of the nucleosome” (eLife, 2016)
